In patent US20220281848A1, “PYRAZOLE-SUBSTITUTED PYRROLIDINONES AS HERBICIDES” (FMC Corporation, priority 2019, published 2022):

Legend:
Assay type in all cases: in vivo
plants = experiment: Test D post-emergence, other plants of Tables D2 and D4; conditions: post-emergence
Description: (§1) A formulation containing 50 g/L of the test chemical was prepared by dissolving the active ingredient in a mixture of organic solvents and emulsifier, details of which are provided in the table. This formulation was then mixed with a small, variable amount of acetone to aid dissolution, before addition of a 0.2% v/v aqueous solution of an adjuvant, as the aqueous diluent, to form an aqueous spray solution which contains a predetermined concentration of the active ingredient.
(§2) This aqueous spray solution was then sprayed onto plants including maize and wheat that had been seed treated with a herbicide safener, after one day's cultivation (for pre-emergence) or after about 12 days' cultivation (for post-emergence). The plants were grown from seeds sown in standard soil, placed in a glasshouse under controlled conditions (at 24/18° C. or 20/16° C., day/night; 16 h light; 65% humidity). After spray application the plants were then grown in a glasshouse under the same conditions and watered twice daily. After 15 d for post-emergence and 20 DAA for pre-emergence the test was evaluated (100=total damage to plant; 0=no damage to plant).

[1] = test system: ivy-leaved morning glory (Ipomoea hederacea, IPOHE); experiment: Test A post-emergence, ivy-leaved morning glory; conditions: after 13 d
Summary of the method: (§3)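 Plants were grown 8 d in a glasshouse (24/16° C day/night, 14 h light, 65% humidity), then sprayed post-emergence at 15.625, 62.5 or 250 g/ha in acetone/water (50:50) with 0.5% Tween 20. Damage was scored visually after 13 d (0 = none, 100 = total).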

corn (Zea mays, ZEAMX) = experiment: Test A pre-emergence, corn; conditions: after 13 d
Summary of the method: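 Each compound is applied pre-emergence at 15.625, 62.5 or 250 g/ha, one day after seeds are sown in standard soil. Plants are then grown in a glasshouse at 24/16° C. with 14 h light and 65% humidity, and injury is scored 0–100 at 13 d.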

[2] = test system: velvetleaf (Abutilon theophrasti, ABUTH); experiment: Test A post-emergence, velvetleaf; conditions: after 13 d
Summary of the method: as §3

wheat = experiment: Test D pre-emergence, wheat seed treated with a herbicide safener; conditions: 100=total damage, 0=no damage
Description: as §1, §2

CN1CC(c2cc(C(F)(F)F)n(C)n2)C(C(=O)Nc2ccc(F)cc2F)C1=O (racemic) [Compound 6]
60: damage to plant (100=total damage to plant; 0=no damage to plant), BRAPL (plants; rate 250, evaluated after 15 d) | damage to plant (100=total damage to plant; 0=no damage to plant), DIGSA (plants; rate 250, evaluated after 15 d) | damage to plant (100=total damage; 0=no damage) ZEAMX (corn (Zea mays, ZEAMX); Pre-Emergence at 250 g/ha) | damage to plant (100=total damage; 0=no damage) ABUTH ([2]; Post-Emergence at 15.625 g/ha) | damage to plant (100=total damage; 0=no damage) ABUTH ([2]; Post-Emergence at 250 g/ha)
50: damage to plant (100=total damage to plant; 0=no damage to plant), BRAPL (plants; rate 130, evaluated after 15 d) | damage to plant (100=total damage to plant; 0=no damage to plant), ECHCG (plants; rate 250, evaluated after 15 d)
30: damage to plant (100=total damage to plant; 0=no damage to plant), EPHHL (plants; rate 500, evaluated after 15 d)
40: damage to plant (100=total damage; 0=no damage) IPOHE ([1]; Post-Emergence at 15.625 g/ha)
0: damage to plant (100=total damage to plant; 0=no damage to plant), CYPES (plants; rate 130, evaluated after 15 d) | damage to plant (100=total damage to plant; 0=no damage to plant), CYPES (plants; rate 250, evaluated after 15 d) | damage to plant (100=total damage to plant; 0=no damage to plant), CYPES (plants; rate 500, evaluated after 15 d) | damage to plant (100=total damage to plant; 0=no damage to plant), DIGSA (plants; rate 130, evaluated after 15 d) | damage to plant (100=total damage to plant; 0=no damage to plant), ECHCG (plants; rate 130, evaluated after 15 d) | damage to plant (100=total damage to plant; 0=no damage to plant), ELEIN (plants; rate 130, evaluated after 15 d) | damage to plant (100=total damage to plant; 0=no damage to plant), ELEIN (plants; rate 250, evaluated after 15 d) | damage to plant (100=total damage to plant; 0=no damage to plant), ELEIN (plants; rate 500, evaluated after 15 d) | damage to plant (100=total damage to plant; 0=no damage to plant), GLXMA (plants; rate 130, evaluated after 15 d) | damage to plant (100=total damage to plant; 0=no damage to plant), GLXMA (plants; rate 250, evaluated after 15 d) | damage to plant (100=total damage to plant; 0=no damage to plant), GLXMA (plants; rate 500, evaluated after 15 d) | damage to plant (100=total damage to plant; 0=no damage to plant), IPOHE (plants; rate 130, evaluated after 15 d) | damage to plant (100=total damage to plant; 0=no damage to plant), ORYSA (plants; rate 130, evaluated after 15 d) | damage to plant (100=total damage to plant; 0=no damage to plant), ORYSA (plants; rate 250, evaluated after 15 d) | damage to plant (100=total damage to plant; 0=no damage to plant), ORYSA (plants; rate 500, evaluated after 15 d) | damage to plant (100=total damage to plant; 0=no damage to plant), PANMI (plants; rate 130, evaluated after 15 d) | damage to plant (100=total damage to plant; 0=no damage to plant), PANMI (plants; rate 250, evaluated after 15 d) | damage to plant (100=total damage to plant; 0=no damage to plant), PANMI (plants; rate 500, evaluated after 15 d) | damage to plant (100=total damage to plant; 0=no damage to plant), SETFA (plants; rate 130, evaluated after 15 d) | damage to plant (100=total damage to plant; 0=no damage to plant), SORVU (plants; rate 130, evaluated after 15 d) | damage to plant (100=total damage to plant; 0=no damage to plant), SORVU (plants; rate 250, evaluated after 15 d) | damage to plant (100=total damage to plant; 0=no damage to plant), SORVU (plants; rate 500, evaluated after 15 d) | damage to plant, TRZAW (wheat; rate 15, 20 DAA) | damage to plant, TRZAW (wheat; rate 30, 20 DAA) | damage to plant, TRZAW (wheat; rate 60, 20 DAA) | damage to plant, TRZAW (wheat; rate 130, 20 DAA) | damage to plant, TRZAW (wheat; rate 250, 20 DAA)
20: damage to plant (100=total damage to plant; 0=no damage to plant), EPHHL (plants; rate 250, evaluated after 15 d) | damage to plant (100=total damage to plant; 0=no damage to plant), IPOHE (plants; rate 500, evaluated after 15 d) | damage to plant (100=total damage to plant; 0=no damage to plant), SETFA (plants; rate 250, evaluated after 15 d) | damage to plant (100=total damage; 0=no damage) IPOHE ([1]; Post-Emergence at 62.5 g/ha) | damage to plant (100=total damage; 0=no damage) ZEAMX (corn (Zea mays, ZEAMX); Pre-Emergence at 62.5 g/ha)
70: damage to plant (100=total damage to plant; 0=no damage to plant), BRAPL (plants; rate 500, evaluated after 15 d) | damage to plant (100=total damage to plant; 0=no damage to plant), DIGSA (plants; rate 500, evaluated after 15 d) | damage to plant (100=total damage to plant; 0=no damage to plant), ECHCG (plants; rate 500, evaluated after 15 d) | damage to plant (100=total damage to plant; 0=no damage to plant), SETFA (plants; rate 500, evaluated after 15 d) | damage to plant (100=total damage; 0=no damage) ABUTH ([2]; Post-Emergence at 62.5 g/ha)
10: damage to plant (100=total damage to plant; 0=no damage to plant), EPHHL (plants; rate 130, evaluated after 15 d) | damage to plant (100=total damage to plant; 0=no damage to plant), IPOHE (plants; rate 250, evaluated after 15 d) | damage to plant (100=total damage; 0=no damage) IPOHE ([1]; Post-Emergence at 250 g/ha) | damage to plant (100=total damage; 0=no damage) ZEAMX (corn (Zea mays, ZEAMX); Pre-Emergence at 15.625 g/ha) | damage to plant, TRZAW (wheat; rate 500, 20 DAA)
